# According to patent US12583855B2, “RET selective inhibitor, preparation method therefor and use thereof” (SHOUYAO HOLDINGS (BEIJING) CO., LTD., priority 2019, dated 2026):
# Residue numbers refer to the chain shown, from its start.
# Legend:
# VEGFR2 = VEGFR2 (Homo sapiens, UniProt P35968); assay: In vitro enzymatic activity assay on VEGFR2 (HTRF); format: biochemical; conditions: GST-VEGFR2 0.1 nM, ATP 2.5 μM
# Summary of the method: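 GST-VEGFR2 (0.1 nM final) with 2.5 μM ATP and 1 μM TK peptide substrate in HEPES pH 7.5 buffer with Mg²⁺/Mn²⁺, 1.5 h at 23 °C. HTRF read-out (665/620 nm ratio) after adding TK antibody and streptavidin-XL665. IC50 from 7-point, 5-fold dilution series.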
# TT cells = assay: TT cell proliferation activity (Cell-Titer Glo); format: cell-based; conditions: TT human thyroid carcinoma cells, 120 h
# Experimental: 4. Determination of TT Cell Proliferation Activity of Compounds
# TT cells, a human thyroid carcinoma cell line, were cultured in Ham's F-12K medium supplemented with 15% fetal bovine serum (FBS, purchased from Biological Industries, BI) and 1% penicillin/streptomycin double antibody (P/S, purchased from Life Technology) under conditions of 37° C. and 5% CO2. TT cells were plated in a 96-well plate (#3917 purchased from Corning) at a concentration of 5000 cells/195 μL/well the day before compound was detected. The compounds were diluted 3-fold with 100% DMSO starting from 10 mM (10 concentrations in total) after 24 h, and 2 μL of each concentration was diluted in 48 μL of Ham's F-12K medium. 5 μL of each diluted compound was added to the plated Cell suspension, the compound and cells were co-incubated in a cell incubator for 120 h (5 days), after the medium was aspirated. 25 μL of Cell-Titer Glo (G7570, purchased from Promega) reagent was added and re-incubated for 5-10 min. Fluorescence value was then read on Envision and the data were calculated using GraphPad Prism software to obtain IC50 values for inhibition of cell proliferation by the compounds.
# [1] = Pharmacokinetic data of compounds in male SD rats; format: in vivo; conditions: rat, po, intragastric, 5 mg/kg, suspension MC 0.5%, plasma
# Experimental: 6. Pharmacokinetic Data of Compounds
# Male SD rats (Beijing Vital River Laboratory Animal Technology Co., Ltd) were divided into groups. 3 in each group, received intragastric administration with the suspension of the test sample (5 mg/kg, suspensions MC 0.5%), respectively. Animals were fasted overnight prior to the experiment from 10 h before dosing to 4 h after dosing. Blood was collected 0.25, 0.5, 1, 2, 4, 6, 8, and 24 h after administration, respectively. After isoflurane anesthesia using a small animal anesthesia machine, 0.3 mL of whole blood samples was taken through the fundus venous plexus, placed in a heparin anticoagulant tube, and were centrifuged at 4° C. 4000 rpm for 5 min plasma was transferred to the centrifuge tube, and stored at −80° C. until analysis. Samples in the plasma were extracted using protein precipitation and the extracts were analyzed by LC/MS.
# RET^WT = target: T1, RET^WT (Homo sapiens, UniProt P07949); assay: In vitro enzymatic activity assay on RET^WT (HTRF); format: biochemical; conditions: GST-RET^WT (658-1114 aa) 0.5 nM, ATP 25 μM
# T1 construct: GST-RET^WT (658-1114 aa, final concentration of 0.5 nM)
# T1 sequence (P07949 658-1114): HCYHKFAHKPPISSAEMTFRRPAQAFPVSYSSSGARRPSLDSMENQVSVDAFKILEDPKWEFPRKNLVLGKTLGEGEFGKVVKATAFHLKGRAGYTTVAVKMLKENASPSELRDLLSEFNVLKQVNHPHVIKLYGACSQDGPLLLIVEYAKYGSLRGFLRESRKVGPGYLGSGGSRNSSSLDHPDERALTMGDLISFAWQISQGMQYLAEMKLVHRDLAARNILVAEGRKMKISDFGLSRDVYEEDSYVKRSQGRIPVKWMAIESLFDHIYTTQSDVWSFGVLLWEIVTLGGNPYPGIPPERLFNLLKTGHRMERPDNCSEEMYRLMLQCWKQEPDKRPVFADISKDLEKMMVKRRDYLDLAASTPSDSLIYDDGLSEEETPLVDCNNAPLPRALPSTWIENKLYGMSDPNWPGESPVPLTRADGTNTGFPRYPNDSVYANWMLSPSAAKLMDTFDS
# Summary of the method: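 Reaction run 2 h at 23 °C in HEPES pH 7.5 buffer with Na3VO4, MgCl2, DTT, Tween 20 and BSA; compounds tested at 7 concentrations (5-fold serial dilution in DMSO from 0.2 mM stock). HTRF detection with TK antibody and streptavidin-XL665; IC50 from curve fitting.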
# RET^V804M = target: T2, RET^V804M (Homo sapiens, UniProt P07949, V804M); assay: In vitro enzymatic activity assay on RET^V804M (HTRF); format: biochemical; conditions: GST-RET^V804M (658-1114 aa) 0.02 nM, ATP 1.5 μM
# T2 construct: GST-RET^V804M (658-1114 aa, final concentration of 0.02 nM)
# T2 sequence (P07949 658-1114 V804M): T1 sequence (P07949 658-1114) with V147M
# Sequence of VEGFR2 (P35968 20-1356): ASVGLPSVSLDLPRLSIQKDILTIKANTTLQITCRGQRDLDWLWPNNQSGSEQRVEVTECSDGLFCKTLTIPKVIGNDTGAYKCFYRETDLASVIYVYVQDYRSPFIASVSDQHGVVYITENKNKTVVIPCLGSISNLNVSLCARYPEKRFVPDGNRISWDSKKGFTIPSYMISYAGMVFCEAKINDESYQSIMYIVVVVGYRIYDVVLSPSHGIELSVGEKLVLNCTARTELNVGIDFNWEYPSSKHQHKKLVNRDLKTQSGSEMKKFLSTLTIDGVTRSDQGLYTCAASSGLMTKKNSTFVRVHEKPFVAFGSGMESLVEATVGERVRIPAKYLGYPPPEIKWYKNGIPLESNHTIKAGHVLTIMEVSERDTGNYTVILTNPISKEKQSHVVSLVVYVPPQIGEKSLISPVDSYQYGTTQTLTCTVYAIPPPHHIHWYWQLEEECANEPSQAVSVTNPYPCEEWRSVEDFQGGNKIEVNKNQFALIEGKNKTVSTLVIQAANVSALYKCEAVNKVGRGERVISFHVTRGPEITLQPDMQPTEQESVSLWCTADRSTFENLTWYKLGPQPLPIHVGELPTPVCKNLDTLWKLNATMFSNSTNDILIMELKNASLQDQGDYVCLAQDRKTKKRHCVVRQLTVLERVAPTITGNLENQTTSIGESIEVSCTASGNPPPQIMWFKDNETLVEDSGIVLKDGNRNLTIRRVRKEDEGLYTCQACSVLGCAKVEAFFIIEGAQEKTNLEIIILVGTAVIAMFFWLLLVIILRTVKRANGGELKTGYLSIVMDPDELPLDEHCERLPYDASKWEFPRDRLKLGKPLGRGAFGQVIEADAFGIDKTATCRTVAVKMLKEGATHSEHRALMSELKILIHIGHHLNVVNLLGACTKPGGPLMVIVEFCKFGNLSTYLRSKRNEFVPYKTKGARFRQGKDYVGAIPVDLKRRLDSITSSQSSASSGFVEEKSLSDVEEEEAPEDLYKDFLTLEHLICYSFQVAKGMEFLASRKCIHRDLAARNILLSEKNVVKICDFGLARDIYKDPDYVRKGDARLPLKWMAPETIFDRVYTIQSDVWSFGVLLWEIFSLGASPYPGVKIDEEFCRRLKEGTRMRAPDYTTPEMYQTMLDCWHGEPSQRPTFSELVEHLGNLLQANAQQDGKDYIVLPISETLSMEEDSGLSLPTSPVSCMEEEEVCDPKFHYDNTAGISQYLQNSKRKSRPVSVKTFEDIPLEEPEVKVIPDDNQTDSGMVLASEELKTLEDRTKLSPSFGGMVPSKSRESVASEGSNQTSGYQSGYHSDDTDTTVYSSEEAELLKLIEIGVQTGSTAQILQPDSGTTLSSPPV
Compound,IC50 (VEGFR2) [nM],IC50 (TT cells) [nM],AUC(0-inf) [1] [ng·h/mL],Cmax [1] [ng/mL],Tmax [1] [h],half-life [1] [h],IC50 (RET^WT) [nM],IC50 (RET^V804M) [nM]
"CSc1ccc(CN2CCN(c3ccc(-c4cc(-c5cnn(C)c5)cn5ncc(C#N)c45)cn3)CC2)cn1 [Example 10, 6-(1-methyl-1Hpyrazol-4-yl)-4-(6-(4-((6-(methylthio)pyridin-3-yl)methyl)piperazin-1-yl)pyridin-3-yl)pyrazolo[1,5-a]pyridine-3-carbonitrile]",13.9,23.8,15300,1490,4,3.38,–,–
"Cn1cc(-c2cc(-c3ccc(N4CCN(C(=O)C5=CCCC5)CC4)nc3)c3c(C#N)cnn3c2)cn1 [Example 2, 4-(6-(4-(cyclopent-1-ene-1-carbonyl)piperazin-1-yl)pyridin-3-yl)-6-(1-methyl-1Hpyrazol-4-yl)pyrazolo[1,5-a]pyridine-3-carbonitrile]",13.4,26.1,–,–,–,–,0.108,0.906
"CS(=O)(=O)c1cccc(CN2CCN(c3ccc(-c4cc(-c5cnn(C(F)F)c5)cn5ncc(C#N)c45)cn3)CC2)c1 [Example 47, 6-(1-difluoromethyl-1Hpyrazol-4 yl)-4-(6-(4-(3-(methylsulfonyl)benzyl)piperazin-1-yl)pyridin-3-yl)pyrazolo[1,5-a]pyridine-3-carbonitrile]",16.9,53.1,–,–,–,–,0.343,2.48
"Cn1cc(-c2cc(-c3ccc(N4CCN(Cc5ccc(S(C)(=O)=O)cc5)CC4)nc3)c3c(C#N)cnn3c2)cn1 [Example 16, 6-(1-methyl-1Hpyrazol-4-yl)-4-(6-(4-(4-(methylsulfonyl)benzyl)piperazin-1-yl)pyridin-3-yl)pyrazolo[1,5-a]pyridine-3-carbonitrile]",8.95,36.7,42700,3790,4,4.08,–,–
"CS(=O)(=O)c1ccc(CN2C3CC2CN(c2ccc(-c4cc(-c5cnn(C(F)F)c5)cn5ncc(C#N)c45)cn2)C3)cn1 [Example 77, 6-(1-(difluoromethyl)-1Hpyrazol-4-yl)-4-(6-(6-((6-(methylsulfonyl)pyridin-3-yl)methyl)-3,6-diazabicyclo[3.1.1]heptan-3-yl)pyridin-3-yl)pyrazolo[1,5-a]pyridine-3-carbonitrile]",7.56,23.1,–,–,–,–,0.468,0.791
"CS(=O)(=O)c1ccccc1CN1C2CC1CN(c1ccc(-c3cc(-c4cnn(C(F)F)c4)cn4ncc(C#N)c34)cn1)C2 [Example 56, 6-(1-difluoromethyl-1Hpyrazol-4-yl)-4-(6-(6-(2-(methylsulfonyl)benzyl)-3,6-diazabicyclo[3.1.1]heptan-3-yl)pyridin-3-yl)pyrazolo[1,5-a]pyridine-3-carbonitrile]",59,39.9,–,–,–,–,0.08,1.78
"Cn1cc(-c2cc(-c3ccc(N4CC5CC(C4)N5Cc4ccccc4S(C)(=O)=O)nc3)c3c(C#N)cnn3c2)cn1 [Example 43, 6-(1-methyl-1Hpyrazol-4-yl)-4-(6-(6-(2-(methylsulfonyl)benzyl)-3,6-diazabicyclo[3.1.1]heptan-3-yl)pyridin-3-yl)pyrazolo[1,5a]pyridine-3-carbonitrile]",13.4,16.4,–,–,–,–,0.132,0.507
"Cn1cc(-c2cc(-c3cnc(N4CC5CC(C4)N5Cc4ccc(S(C)(=O)=O)cc4)cn3)c3c(C#N)cnn3c2)cn1 [Example 41, 6-(1-methyl-1Hpyrazol-4-yl)-4-(5-(6-(4-(methylsulfonyl)benzyl)-3,6-diazabicyclo[3.1.1]heptan-3-yl)pyrazin-2-yl)pyrazolo[1,5-a]pyridine-3-carbonitrile]",17.3,18.2,–,–,–,–,0.352,1.04
"Cn1cc(-c2cc(-c3ccc(N4CCN(Cc5cccc(S(C)(=O)=O)c5)CC4)nc3)c3c(C#N)cnn3c2)cn1 [Example 15, 6-(1-methyl-1Hpyrazol-4-yl)-4-(6-(4-(3-(methylsulfonyl)benzyl)piperazin-1-yl)pyridin-3-yl)pyrazolo[1,5-a]pyridine-3-carbonitrile]",11.8,17.8,6650,1330,1.17,3.56,–,–
"CS(=O)(=O)c1cccc(CN2C3CC2CN(c2ccc(-c4cc(-c5cnn(C(F)F)c5)cn5ncc(C#N)c45)cn2)C3)c1 [Example 55, 6-(1-difluoromethyl-1Hpyrazol-4-yl)-4-(6-(6-(3-(methylsulfonyl)benzyl)-3,6-diazabicyclo[3.1.1]heptan-3-yl)pyridin-3-yl)pyrazolo[1,5-a]pyridine-3-carbonitrile]",19.6,15.4,–,–,–,–,0.109,0.976
"CC1=C(C(=O)N2CCN(c3ccc(-c4cc(-c5cnn(C)c5)cn5ncc(C#N)c45)cn3)CC2)CCC1 [Example 6, 6-(1-methyl-1Hpyrazol-4-yl)-4-(6-(4-(2-methylcyclopent-1-ene-1-carbonyl)piperazin-1-yl)pyridin-3-yl)pyrazolo[1,5-a]pyridine-3-carbonitrile]",8.91,13.8,–,–,–,–,0.332,1.25
"Cn1cc(-c2cc(-c3ccc(N4CC5CC(C4)N5Cc4ccc(S(C)(=O)=O)cn4)nc3)c3c(C#N)cnn3c2)cn1 [Example 79, 6-(1-(methyl)-1Hpyrazol-4-yl)-4-(6-(6-((5-(methylsulfonyl)pyridin-2-yl)methyl)-3,6-diazabicyclo[3.1.1]heptan-3-yl)pyridin-3-yl)pyrazolo[1,5-a]pyridine-3-carbonitrile]",5.21,21.3,–,–,–,–,0.331,0.64
"Cn1cc(-c2cc(-c3ccc(N4CC5CC(C4)N5Cc4ccc(S(C)(=O)=O)nc4)nc3)c3c(C#N)cnn3c2)cn1 [Example 76, 6-(1-(methyl)-1Hpyrazol-4-yl)-4-(6-(6-((6-(methylsulfonyl)pyridin-3-yl)methyl)-3,6-diazabicyclo[3.1.1]heptan-3-yl)pyridin-3-yl)pyrazolo[1,5-a]pyridine-3-carbonitrile]",2.81,16.6,–,–,–,–,0.296,0.479
